The values that follow come from article PMC6511062, “Preclinical candidate for the treatment of visceral leishmaniasis that acts through proteasome inhibition” (Proceedings of the National Academy of Sciences of the …, 2019).

Structures are written as SMILES. Values after ≈ are worked out from the molar mass of the structure shown. “Also recorded” adds a separate entry of the source. Read-outs that look alike come from different tables or passages of the source. Some results are limits rather than exact numbers.

Series [1] has as its system Trypanosoma cruzi. Nature of the series: T. cruzi phenotypic screening assay. Type of series: cell-based. The following applies: phenotypic screen, read-out: EC50 against T. cruzi. Here is the method:
(§1) T. cruzi4, Leishmania donovani axenic amastigote, cidal axenic amastigote and intra-
(§2) macrophage drug sensitivity assays were conducted as previously described5,6. […]
(§3) 5. Intrinsic clearance (CLint) […]
(§4) 6. Pharmacokinetic studies. […]

Series [2] has as its system L. donovani intramacrophage amastigotes. Kind of series: L. donovani intramacrophage assay (amastigotes in differentiated THP-1 cells). In kind it is cell-based, Leishmania donovani. The note with it: Leishmania donovani. Here is the method:
as §1, §2, §3, §4

Series [3] in a line: CAD (charged aerosol detector) solubility.
The nature of series [4]: Intrinsic clearance in mouse liver microsomes. Type of series: in vitro ADME. Here is the method: page 13: 4. Parasite assays T. cruzi4, Leishmania donovani axenic amastigote, cidal axenic amastigote and intra- macrophage drug sensitivity assays were conducted as previously described5,6. a. […] Instead of a single readout at 72 h, multiple identical plates were used and read at different time points (24, 48, 72 h). Rate of kill curves showing the luminescence signal at each time point for each concentration were plotted. 5. […] The rate of intrinsic clearance (CLint) of each test compound was then calculated using the following calculation: CLint(mL/min/g liver) = k x V x Microsomal protein yield Where V (mL/mg protein) is the incubation volume/mg protein added and microsomal protein yield is taken as 52.5 mg protein/g liver. Verapamil (0.5 μM) was used as a positive control to confirm acceptable assay performance. 6. Pharmacokinetic studies. a. Mouse and dog PK Mouse pharmacokinetic studies were conducted in male CD-1 mice and male beagle dogs. 3 animals per group were used for each study performed. A dose of 3 mg/kg was administered intravenously, in a bolus form to mice and infused over a 30 min period to dogs. For all the intravenous studies compound were dissolved in 5% DMSO/20% kleptose in saline. A dose of 10 mg/kg was orally administered by gavage to the two species in a suspension of 1% methylcellulose to investigate oral pharmacokinetics. S13
On the technique in general: Liver microsomes are a subcellular fraction often used to study metabolism.

Series [5] has as its system THP-1 cells. Kind of series: Mammalian cell growth inhibition (THP-1). Type of series: cell-based. The following applies: Homo sapiens. An excerpt: We hypothesized that, in view of their structural similarity, 1 and 2 probably shared the same mechanism of action.
Series [6] can be described thus: physchem.
The nature of series [7]: Solubility in fasted simulated intestinal fluid (FaSSIF). The note with it: fassif.
Series [8] relates to Salmonella typhimurium TA1535, TA1537, TA98, TA100 and Escherichia coli WP2uvrA(pKM101). Nature of the series: Bacterial mutation screening assay (Ames test), overall outcome. In kind it is cell-based. The following applies: presence and absence of S9-mix. Here is the method: i. Bacterial Mutation (Ames) Assay
Compound 6 was tested in a bacterial mutation screening assay (Ames test) with Salmonella typhimurium TA1535, TA1537, TA98, TA100 and Escherichia coli WP2uvrA(pKM101) in the presence and absence of an exogenous mammalian oxidative metabolism system (S9-mix). The maximum concentration tested and […]
Compound 6a was tested in a bacterial mutation screening assay (Ames test) with […]
Compound 7a was tested in a bacterial mutation screening assay (Ames test) with […]
The bacterial mutation screening assay was a plate incorporation test carried out as previously described15 and according to current methodology. […]
On the technique in general: In the Ames test, an excess of revertant colonies over the control signals mutagenicity.

Series [9] relates to L. donovani proteasome β subunits. Kind of series: Activity-based probe (UbiQ-018) labelling of L. donovani proteasome. Type of series: binding, Leishmania donovani. The following applies: 100 µM. Here is the method: m. Activity-Based Probe Labelling of THP1 and L. donovani proteasome
Proteasome enriched fractions from THP1 (20 µg), L. donovani (10 µg) and L. donovani […]
µM for 1 h. Proteasome enriched fractions were also incubated with DMSO as control.
For all proteasome labelling experiments, the active-site probe Me4BodipyFL-Ahx3Leu3VS (UbiQ-018) was used at final concentration of 500 nM in sucrose buffer (50 mM Tris buffer pH 7.5, 5 mM magnesium chloride, 1 mM EDTA, 50 mM NaCl, 250 mM sucrose, 2 mM ATP, 1 mM DTT). Proteasome enriched fractions treated with […]
DMSO or test compounds, were incubated with the probe for 2h at RT. Samples were then denatured by addition of Laemmli sample buffer, heated to 95°C for 10 min and separated by electrophoresis on a 15% SDS-PAGE acrylamide gel. Following separation, gels were scanned in the fluorescein channel of a ChemiDoc reader (λ excitation/emission = 480/530 nm). Fluorescent proteins were excised and MALDI– TOF analysis carried out by the FingerPrints Proteomics service at the University of […]
10. Measuring Proteolytic activity of Leishmania tarentolae Proteasome […]
pre-prepared as a 10 mM stocks in 100 % DMSO and then diluted 1 in 3, over 11 points, prior to dispense of 100 nl of each dilution series into black, low volume, 384-well microplates. Proteasome was prepared as a 0.5 µg/mL working solution in assay buffer (50 mM HEPES (pH 7.5), 150 mM NaCl, 5 mM MgCl2, 5% glycerol, 1 mM CHAPS) and 5 µL was added using a Multidrop Micro (Thermo Fisher Scientific) to all wells containing compound dilutions on the test microplates. The microplates were then centrifuged for 1 min at 1000 rpm and incubated for 15 mins at 25 °C, prior to an assay initiating addition of 5 µl of fluorogenic substrate, which had been prepared as a 1 µM […]
The assay microplates were then centrifuged for 10 secs before using a Tecan M1000 Pro to monitor the increase of fluorescent intensity at 25 °C by excitation of the liberated Rhodamine110 at 485 nm and emission at 535 nm every 125 secs for 20 cycles. […]
calculate initial rates of reactions for all assay wells on the microplate by fitting to a linear regression model. The initial rates of reaction for all compound concentrations tested were normalised to the initial rates determined for 16 replicate control wells per microplate of both uninhibited reaction and no-proteasome background, and subsequently, IC50 values were determined by fitting the normalised data to the following four-parameter logistic model; y = a + (( b – a) / ( 1 + ( 10 ^ x / 10 ^ c ) ^ d ), where ‘a’ is the minimum, ‘b’ is […], ‘c’ is the IC50 and ‘d’ is […].
11. Cryo-EM of 20S Leishmania tarentolae proteasome a. Purification of 20S Leishmania tarentolae proteasome. […]

For series [10], the system named is chymotrypsin-like activity of the L. donovani proteasome. Kind of series: biochemical. The following applies: lysates from RES II and WT parasites. Also noted: species or system Leishmania donovani.
Experimental: An in vitro assay was developed that enabled the chymotrypsin-like activity and additional proteolytic activities associated with the proteasome to be directly monitored within proteasome-enriched parasite cell lysates. Likewise, human proteasome from two sources (i.e., commercially pure 26S and enriched proteasome fractions from THP-1 lysates) was tested using the same biochemical assays.
Proteasome enrichment by ultracentrifugation
The protocol described by Kisselev et al.34 was adapted to enrich the proteasomes present in L. donovani and THP1 crude extracts. L. donovani or THP1 cells were resuspended in sucrose buffer (50 mM Tris buffer pH 7.5, 5 mM Magnesium chloride, 1 mM EDTA, 50 mM NaCl, 250 mM sucrose, 2 mM ATP, 1 mM DTT) and lysed by nitrogen cavitation for 15 min (110 bars of 1500 psi). Lysates were centrifuged at 20,000g for 30 min at 4 °C and supernatants containing soluble protein were subjected to an ultracentrifugation step at 300,000g for 2h at 4 °C. The resulting proteasome-containing pellets were resuspended in sucrose buffer and left on ice for 30 min to complete solubilization. Samples were centrifuged for 10 min at 20,000 g to remove insoluble material. Proteins contained in supernatant (proteasome enriched fraction) were measured by Bradford.
Proteasome activity assays
Compounds were dispensed into black 384-well assay plates (Greiner) by acoustic dispensing (LabCyte ECHO). For potency determinations, eleven-point, one in three dilution curves were generated, with a top concentration of 100 µM. Three proteasome activities were measured using a commercially available indirect enzyme-based luminescent assay kit (Promega) with Suc-LLVY-aminoluciferin, Z-LRR-aminoluciferin and Z-nLPnLD-aminoluciferin used as substrates for chymotrypsin-like, trypsin-like and caspase-like activities, respectively. In addition to proteasome samples: L. donovani and THP1-enriched proteasomes, commercially available human purified 26S proteasome (Boston Biochem) was also assessed.
In series [11] the test system is human proteasome catalytic subunits (THP-1 extracts). Nature of the series: Activity-based probe (UbiQ-018) labelling of THP-1 proteasome. The note with it: human THP-1 extracts, 100 µM. In kind it is binding.
In series [12] the test system is L. donovani promastigotes. Kind of series: microbe, parasite or virus in culture. Type of series: cell-based, Leishmania donovani. The following applies: Leishmania donovani. Here is the method: 9. Mode of action studies a. Cell lines and culture conditions […]
c. Generation of drug-resistant parasites […]
donovani in the continuous presence of this compound. Starting at a sub-lethal […]
After a total of 120 days in
Genomic DNA was harvested from three independently generated L. donovani resistant clones and an age match control, as previously described27. PCR was performed using Platinum PCR Supermix (Invitrogen), as per manufacturer’s […]
generated using primers SubunitB4FW and SubunitB4RV, then sequenced using primer SubunitB4FW (Table S6). To sequence the β5 subunit (LdBPK_361730.1), an […]
sequenced using primer SubunitB5FW. PCR amplification and DNA sequencing were performed in triplicate for each independently generated cell line. The Leishmania donovani BPK282A1 sequences of the two subunits were identified in TriTrypDB and […]
e. Generation of overexpression constructs and LdBOB transgenic cell lines The genes encoding the mutated versions of the β4 (LdBPK_360340.1) and the β5 […]
parasites, were synthesised (GeneArt, Thermo Fischer Scientific). The synthetic genes, flanked by BamHI sites were cloned into the equivalent site of pIR1-SAT. The accuracy of all assembled constructs was verified by sequencing.
Mid-log-phase L. donovani promastigotes (LdBOB) were transfected with overexpression constructs using the Human T-Cell Nucleofector kit and the Amaxa Nucleofector electroporator (program V-033). Following transfection, cells were […]
to appropriate drug selection (100 µg/mL nourseothricin). Cloned cell lines were […]
selection for one passage prior to experiments. […]

For series [13], the system named is L. donovani (LV9). Also noted: method as in PMID 11353640. The note with it: similar mouse model, once daily; cited from earlier work.
Series [14] relates to L. donovani (LV9). Nature of the series: Mouse model of VL (in vivo efficacy in female Balb/C mice). The arrangement: species or system Leishmania donovani. The note with it: 30 mg/kg u.i.d. (10 days PO). Here is the method: Infected mice were dosed at 3, 10, or 25 mg/kg orally twice a day for 10 consecutive days. Two days after the termination of treatment, mice were euthanized, and the parasite burdens in their livers were determined.
Peripheral blood samples were obtained at 5, 15, 30 min, 1, 2, 4, 6 ,8 and 24 h after intravenous administration and 15, 30, 45 min,1, 2, 4, 6, 8 and 24 h after oral administration. Blood was 1/2 diluted with milliQ water and immediately frozen on dry ice until analysis. Quantification was performed by means of LC-MS/MS (API4000), with a lower limit of quantification of 1 ng/mL. […]
Data analysis and calculation of pharmacokinetic parameters was performed using Phoenix, WinNonLin Version 6.3. […]
For both intravenous and oral administration, the systemic exposures were determined by calculating the area under the blood concentration time curve (AUC) from the start of dosing to the last observed quantifiable concentration (AUC0-t) by using the linear up-log down trapezoidal rule. The slope of the terminal elimination phase was estimated by linear regression of the terminal data points (minimum 3 points) from a natural log concentration versus time plot of the data. The half-life (t1/2) of the terminal elimination phase was calculated as t1/2 = 0.693/λ.
7. In vivo efficacy in female Balb/C mice
To establish infection in mice, sodium stibogluconate-sensitive L. donovani (LV9, WHO designation: MHOM/ET/67/HU3) amastigotes were isolated from the spleen of a heavily infected donor hamster (Janvier, France)7. An inoculum containing 1.0 x 10^8 amastigotes/mL in Dulbecco’s modified eagles medium (high glucose) was prepared […]
and female BalbC mice (Harlan, UK) then infected intravenously via the tail vein with a 0.2 mL bolus (equivalent to ~2.0 x 10^7 amastigotes). Infection was left to establish for […]
daily orally as a suspension in 0.5% hydroxypropylmethylcellulose, 0.4% tween 80 and 0.5% benzyl alcohol. With twice daily regimens, the second daily dose was administered approximately 8 h following the first dose. Dose regimens evaluated were:
1. 50 mg/kg twice daily for 5 days
2. 25 mg/kg, 10 mg/kg and 3 mg/kg twice daily for 10 days
3. 25 mg/kg once daily for 10 days
Miltefosine, as the only oral treatment for visceral leishmaniasis, was used as a […]

[15] abbreviates: L. donovani amastigotes in differentiated THP-1 cells, read-out: Intramacrophage EC50.

For `O=C(Nc1cccc(-c2nc3ncccc3o2)c1)c1ccco1` [Compound 1], the figures for the half-maximal effective concentration (EC50) in [1], in [2] (setting [15]) and in series [5] were 220 nM, 5700 nM and > 50000 nM, respectively. The amount in solution in series [3] (solubility) came to 58 µg/mL (≈ 190 µM). This compound also yielded a CLint in series [4] of 24 mL/min/g.
The matching figures for `O=C(Nc1cccc(-c2cn3cccnc3n2)c1)c1ccco1` [Compound 2]: 930 nM, 26000 nM, > 50000 nM, ≥ 162 µg/mL and 8.5 mL/min/g.
With `O=C(Nc1ccc(F)c(-c2cn3nc(N4CCOCC4)cnc3n2)c1)N1CCCC1` [Compound 7a], the figures for the solubility in [6] and in [7] were 24 µg/mL (≈ 58.3 µM) and 13 µg/mL (≈ 31.6 µM), respectively. In addition, the EC50 (in general, the midpoint of the concentration-response curve) in series [2] (THP-1, read-out: Intramacrophage EC50) was 410 nM; in [5] it was > 50000 nM. The AMES entry in [8] is reported as “not mutagenic; also recorded: negative”. Also, the CLint in series [4] is 0.91 mL/min/g.
As to `CC(C)C[C@H](NC(=O)[C@H](Cc1ccccc1)NC(=O)c1cnccn1)B(O)O` [bortezomib, reference compound], the “UbiQ-018 labelling of proteasome subunits” value in series [9] (L. donovani WT extracts), in [9] (L. donovani-resistant RES II extracts) and in [11] was “prevents labeling of proteasome subunits in all extracts” in each case. For the same compound, the “inhibition of chymotrypsin-like activity, RES II vs WT lysates” value in series [10] is on record as “equal potency”. In addition, the EC50 in [12] (RES I (compound 7-resistant clone)) came out at 28 ± 1.4 nM; in series [12] (RES III (compound 7-resistant clone)), 32 ± 1.5 nM; in series [12] (WT promastigotes), 31 ± 1.5 nM.
As for `CCCCCCCCCCCCCCCCOP(=O)([O-])OCC[N+](C)(C)C` [miltefosine, reference compound], in series [13], the ED90 is reported as 27 mg/kg. Besides, the “Reduction in parasite burden (compared to the vehicle control group)” value in [14] amounted to 99.9%.
